14 compounds from patent publication US20230081426A1, “COMPOUNDS AND METHODS FOR KRAS MODULATION AND INDICATIONS THEREFOR” (Plexxikon Inc., priority 2020, published 2023) can be followed below.

For orientation: IC50 means the concentration at which inhibition is half-maximal.

Test [1] has as its target T1, G12D-mutant human KRAS (amino acid residues 1-188) (Homo sapiens, UniProt P01116, G12D).
T1 construct: G12D or G12C-mutant human KRAS (amino acid residues 1-188) with FLAG tag; made in house; host or cells: E. coli
As to the kind of experiment: KRAS Binding Disruption Assay (AlphaScreen; biotinylated KRpep-2d analogue or RAF1-RBD), G12D. As to conditions: KRAS G12D; geometric mean; read-out: KRAS GMean IC50 (uM) MUTATION: G12D. Summed up:
(§1)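 AlphaScreen readout: signal falls as compound displaces biotinylated KRpep-2d analogue or RAF1-RBD from mutant KRAS. Both partners at 5-20 nM, 1 h binding at 25° C, then 10 μg/mL Anti-Flag acceptor and streptavidin donor beads for 1 h. IC50 by nonlinear regression of % inhibition.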

Test [2] addresses T2, G12C-mutant human KRAS (amino acid residues 1-188) (Homo sapiens, UniProt P01116, G12C).
T2 construct: G12D or G12C-mutant human KRAS (amino acid residues 1-188) with FLAG tag; made in house; host or cells: E. coli
As to the kind of experiment: KRAS Binding Disruption Assay (AlphaScreen; biotinylated KRpep-2d analogue or RAF1-RBD), G12C. As to conditions: geometric mean, read-out: KRAS GMean IC50 (uM) MUTATION: G12C. In a few lines: as §1

Test [3] addresses T3, G12V-mutant human KRAS (amino acid residues 1-188) (Homo sapiens, UniProt P01116, G12V).
T3 construct: G12V-mutant human KRAS (amino acid residues 1-188) with FLAG tag was purified from E. coli; made in house; host or cells: E. coli
As to the kind of experiment: KRAS Binding Competition Assay (AlphaScreen; biotinylated KRpep-2d analogue), G12V. As to conditions: geometric mean, read-out: KRAS GMean IC50 (uM) MUTATION: G12V. (In Alpha technology, singlet oxygen from a donor bead excites a nearby acceptor bead.)

`O=C(CC1CCNC1)N1[C@@H]2CC[C@H]1CN(c1nc(OCC34CCCN3CCC4)nc3cc(-c4cc(O)cc5ccccc45)ccc13)C2` (stereo partly drawn) [P-0110, 1-((1R,5S)-3-(7-(3-hydroxynaphthalen-1-yl)-2-((tetrahydro-1H-pyrrolizin-7a(5H)-yl)methoxy)quinazolin-4-yl)-3,8-diazabicyclo[3.2.1]octan-8-yl)-2-(pyrrolidin-3-yl)ethan-1-one]: the IC50 in test [1], in test [2] and in test [3] was 0.0001 to 10 µM throughout.
Take `CN1CCC[C@H]1COc1nc(N2CC3CCC(C2)N3C(=O)Cc2ccc(N)cc2)c2ccc(-c3cc(O)cc4ccccc34)cc2n1` [P-0115]: the IC50 in test [1] is 0.0001 to 10 µM; in test [2] it was 0.0001 to 10 µM; in test [3], 10 to 100 µM.
On to `CN1CCN(CCC(=O)N2[C@@H]3CC[C@H]2CN(c2nc(OC[C@@H]4CCCN4C)nc4cc(-c5cc(O)cc6ccccc56)ccc24)C3)CC1` [P-0116, 1-((1R,5S)-3-(7-(3-hydroxynaphthalen-1-yl)-2-(((S)-1-methylpyrrolidin-2-yl)methoxy)quinazolin-4-yl)-3,8-diazabicyclo[3.2.1]octan-8-yl)-3-(4-methylpiperazin-1-yl)propan-1-one], for which the IC50 in test [1] fell in the range of 0.0001 to 10 µM; in test [2], 10 to 100 µM; in test [3] it was 10 to 100 µM.
Turning to `CN1CCC[C@H]1COc1nc(N2C[C@H]3CC[C@@H](C2)N3C(=O)Cc2c[nH]cn2)c2ccc(-c3cc(O)cc4ccccc34)cc2n1` [P-0117, 1-((1R,5S)-3-(7-(3-hydroxynaphthalen-1-yl)-2-(((S)-1-methylpyrrolidin-2-yl)methoxy)quinazolin-4-yl)-3,8-diazabicyclo[3.2.1]octan-8-yl)-2-(1H-imidazol-4-yl)ethan-1-one], the IC50 in test [1], in test [2] and in test [3] was 0.0001 to 10 µM each time.
In the case of `CN1CCC[C@H]1COc1nc(N2C[C@H]3CC[C@@H](C2)N3C(=O)CN2CCCC2)c2ccc(-c3cc(O)cc4ccccc34)cc2n1` [P-0118, 1-((1R,5S)-3-(7-(3-hydroxynaphthalen-1-yl)-2-(((S)-1-methylpyrrolidin-2-yl)methoxy)quinazolin-4-yl)-3,8-diazabicyclo[3.2.1]octan-8-yl)-2-(pyrrolidin-1-yl)ethan-1-one], the IC50 fell in the range of 0.0001 to 10 µM in test [1], 0.0001 to 10 µM in test [2] and 10 to 100 µM in test [3].
For the compound `CN1CCN(CCCC(=O)N2[C@@H]3CC[C@H]2CN(c2nc(OC[C@@H]4CCCN4C)nc4cc(-c5cc(O)cc6ccccc56)ccc24)C3)CC1` [P-0119, 1-((1R,5S)-3-(7-(3-hydroxynaphthalen-1-yl)-2-(((S)-1-methylpyrrolidin-2-yl)methoxy)quinazolin-4-yl)-3,8-diazabicyclo[3.2.1]octan-8-yl)-4-(4-methylpiperazin-1-yl)butan-1-one], the IC50 lay in the range of 0.0001 to 10 µM in test [1], 0.0001 to 10 µM in test [2] and 10 to 100 µM in test [3].
As to `CN1CCC[C@H]1COc1nc(N2C[C@H]3CC[C@@H](C2)N3C(=O)CCn2cccn2)c2ccc(-c3cc(O)cc4ccccc34)cc2n1` [P-0120, 1-((1R,5S)-3-(7-(3-hydroxynaphthalen-1-yl)-2-(((S)-1-methylpyrrolidin-2-yl)methoxy)quinazolin-4-yl)-3,8-diazabicyclo[3.2.1]octan-8-yl)-3-(1H-pyrazol-1-yl)propan-1-one], the IC50 in test [1], in test [2] and in test [3] was 0.0001 to 10 µM in each case.
As to `CN1CCC[C@H]1COc1nc(N2C[C@H]3CC[C@@H](C2)N3C(=O)Cc2cnccn2)c2ccc(-c3cc(O)cc4ccccc34)cc2n1` [P-0121, 1-((1R,5S)-3-(7-(3-hydroxynaphthalen-1-yl)-2-(((S)-1-methylpyrrolidin-2-yl)methoxy)quinazolin-4-yl)-3,8-diazabicyclo[3.2.1]octan-8-yl)-2-(pyrazin-2-yl)ethan-1-one], the IC50 in test [1] fell in the range of 0.0001 to 10 µM; in test [2], 10 to 100 µM; in test [3], 10 to 100 µM.
On to `O=C(N[C@@H]1CCNC1)N1[C@@H]2CC[C@H]1CN(c1nc(OCC34CCCN3CCC4)nc3cc(-c4cc(O)cc5ccccc45)ccc13)C2` [P-0122, (1R,5S)-3-(7-(3-hydroxynaphthalen-1-yl)-2-((tetrahydro-1H-pyrrolizin-7a(5H)-yl)methoxy)quinazolin-4-yl)-N-((R)-pyrrolidin-3-yl)-3,8-diazabicyclo[3.2.1]octane-8-carboxamide], for which the IC50 in test [1], in test [2] and in test [3] was 0.0001 to 10 µM each time.
On to `O=C(N[C@H]1CCNC1)N1[C@@H]2CC[C@H]1CN(c1nc(OCC34CCCN3CCC4)nc3cc(-c4cc(O)cc5ccccc45)ccc13)C2` [P-0123, (1R,5S)-3-(7-(3-hydroxynaphthalen-1-yl)-2-((tetrahydro-1H-pyrrolizin-7a(5H)-yl)methoxy)quinazolin-4-yl)-N-((S)-pyrrolidin-3-yl)-3,8-diazabicyclo[3.2.1]octane-8-carboxamide], for which the IC50 in test [1], in test [2] and in test [3] was 0.0001 to 10 µM throughout.
On to `CC1(NC(=O)N2[C@@H]3CC[C@H]2CN(c2nc(OCC45CCCN4CCC5)nc4cc(-c5cc(O)cc6ccccc56)ccc24)C3)CCNC1` (stereo partly drawn) [P-0124, (1R,5S)-3-(7-(3-hydroxynaphthalen-1-yl)-2-((tetrahydro-1H-pyrrolizin-7a(5H)-yl)methoxy)quinazolin-4-yl)-N-(3-methylpyrrolidin-3-yl)-3,8-diazabicyclo[3.2.1]octane-8-carboxamide], for which the IC50 in test [1], in test [2] and in test [3] was 0.0001 to 10 µM in each case.
As for `O=C(NC1CNC1)N1[C@@H]2CC[C@H]1CN(c1nc(OCC34CCCN3CCC4)nc3cc(-c4cc(O)cc5ccccc45)ccc13)C2` [P-0125, (1R,5S)-N-(azetidin-3-yl)-3-(7-(3-hydroxynaphthalen-1-yl)-2-((tetrahydro-1H-pyrrolizin-7a(5H)-yl)methoxy)quinazolin-4-yl)-3,8-diazabicyclo[3.2.1]octane-8-carboxamide], the IC50 in test [1], in test [2] and in test [3] was 0.0001 to 10 µM in each case.
Turning to `O=C(Nc1cn[nH]c1)N1[C@@H]2CC[C@H]1CN(c1nc(OCC34CCCN3CCC4)nc3cc(-c4cc(O)cc5ccccc45)ccc13)C2` [P-0126, (1R,5S)-3-(7-(3-hydroxynaphthalen-1-yl)-2-((tetrahydro-1H-pyrrolizin-7a(5H)-yl)methoxy)quinazolin-4-yl)-N-(1H-pyrazol-4-yl)-3,8-diazabicyclo[3.2.1]octane-8-carboxamide], the IC50 in test [1], in test [2] and in test [3] was 0.0001 to 10 µM throughout.
Regarding `O=C(NCC1CCNC1)N1[C@@H]2CC[C@H]1CN(c1nc(OCC34CCCN3CCC4)nc3cc(-c4cc(O)cc5ccccc45)ccc13)C2` (stereo partly drawn) [P-0127, (1R,5S)-3-(7-(3-hydroxynaphthalen-1-yl)-2-((tetrahydro-1H-pyrrolizin-7a(5H)-yl)methoxy)quinazolin-4-yl)-N-(pyrrolidin-3-ylmethyl)-3,8-diazabicyclo[3.2.1]octane-8-carboxamide], the IC50 in test [1], in test [2] and in test [3] was 0.0001 to 10 µM each time.
